The numbers were not newly measured in patent publication US20230226011A1, “Novel Pharmaceutical Composition Comprising Combination of Olopatadine and Nepafenac” (Zenvision Pharma LLP, priority 2020, published 2023), which cites them from elsewhere.

Molecules are shown by their SMILES. Where a name gives a salt, the structure may show the parent alone.

For this series the following is noted: for solubility in water: solvent water.

For `NC(=O)Cc1cccc(C(=O)c2ccccc2)c1N` [Nepafenac, 2-amino-3-benzoylbenzeneacetamide], the solubility in water entry is given as “practically insoluble”.

For `CN(C)CC/C=C1/c2ccccc2COc2ccc(CC(=O)O)cc21` [Olopatadine hydrochloride, 11-[(Z)-3(Dimethylamino)propylidene]-6-11-dihydrodibenz[b,e] oxepin-2-acetic acid, hydrochloride], the solubility in water result is “sparingly soluble”. Moreover, the solubility in chloroform result (solvent chloroform) is “insoluble”. Also, the solubility in methanol entry (solvent methanol) is reported as “sparingly soluble”.
